Reference: patent US11759480B2, “Compositions and methods for CAR T cell therapy” (ENDOCYTE, INC., priority 2017, dated 2023)

What was measured:
s.c. MDA-MB-231 tumors = test: EC17 dose escalation cycles versus weekly dosing (Example 45); type: in vivo, mice
Method: The effect of EC17 dose de-escalation was investigated on the anti-tumor activity and the toxicity (body weight changes) of CAR-T therapy. 8.5 million frozen anti-FITC CAR-T cells were thawed and i.v. injected into mice bearing s.c. MDA-MB-231 tumors (100-200 mm3). 500 nmol/kg EC17 was administered 2 days after CAR-T injection and caused sCRS in mice. […] The first group was dosed with 500 nmol/kg EC17 weekly (SIW), whereas the second group was dosed with two EC17 escalation cycles. Each cycle lasted for 2 weeks (14 days). The dosing schedule in each cycle included 5 nmol/kg EC17 at day 1, 50 nmol/kg EC17 at day 3, 500 nmol/kg EC17 on day 5. After 9 days break, the second escalation cycle started. Tumor sizes and body weights were monitored 2-3 times per week.

MDA-MB-231 tumor = test: Enumeration and characterization of FITC CAR T cells in blood after rescue (Example 33); type: in vivo, NSG mice
Method: Plasma was removed from predetermined volumes of whole EDTA treated blood with a 10-minute 4° C. spin at 3000 g and the resulting cell pellets were incubated with a 10-fold volume of room temperature 1×RBC lysis solution [prepared from 10× stock; Biolegend, catalog #420301] for 5 minutes, centrifuged at 400 g for 5 min, and the cell pellet was washed in a 10-fold volume of ice cold phosphate buffered saline pH=7.4 and filtered with a 40 μm nylon filter and then pelleted again. The leukocyte pellets were then resuspended in flow cytometry staining solution [1% bovine serum albumin, 50 mg/mL human IgG (Equitech Bio, cat #SLH56-0001), 0.9% sodium azide in a phosphate buffered saline, pH=7.4] supplemented with both anti-mouse FcγIII/II receptor (CD16/CD32) block [clone 2.4G2; BD Bioscience, catalog #553142 at 1:100 (v/v) dilution] and anti-human Fc Block [BD Biosciences, catalog #564220 at 1:50 (v/v) dilution]. Leukocyte surface marker staining was performed with the addition of the following fluorochrome conjugated monoclonal antibodies added to each sample for 20 minutes on ice in the dark: anti-human CD45-APCeF780 [clone HI30, eBioscience #47-0459-42 at 1:20 (v/v) dilution], anti-human CD137-BV650 [clone 4B4-1, BD Bioscience #564092 at 1:20 (v/v) dilution], anti-human CD8α-PECy7 [clone RPA-T8, BD Bioscience, catalog #557746 at 1:20 (v/v) dilution], anti-human CD4-Percpe710 [clone SK3, eBioscience catalog #46-0047-42 at 1:20 (v/v) dilution]. After leukocyte staining, cells were washed with PBS and resuspended in cold PBS containing 53,000 CountBright™ beads [Invitrogen catalog #C36950] and transferred to flow cytometry collection tubes. Flow cytometry data was collected on the Gallios flow cytometer (Beckman Coulter, Brea, Calif.), where a minimum of 15,000 CountBright™ bead events were collected in an attempt to collect enough leukocyte events for an accurate count of infused CART cells in each mouse blood sample. Determination of the concentration of CAR T cells in each blood sample was calculated according to Invitrogen's instructions. Briefly, CAR T cells were identified as human CD45+ GFP+ events and were easily distinguished and counted using the Kaluza™ flow cytometry software. CountBright™ beads were uniformly labeled with a fluorochrome not utilized in the antibody panel used to identify the CAR T cells and were easily distinguished from the leukocytes and bead events were counted. Because 53,000 CountBright™ beads were added to each sample tube, we calculated the ratio of 53,000 total beads to bead events collected per sample and set the bead ratio equivalent to the unknown number of CAR T cells in each sample divided by the known number of CAR T cell events collected. Solving for the unknown gave us the number of CAR T cells isolated from each blood sample of known volumes. The number of CAR T cells in the circulation of each infused mouse was then represented on the graphs as the total number of CART cells per 50 μL of whole blood analyzed. Statistical significance was determined by utilizing an unpaired, two-tailed, students t-test with significance set at p<0.05 for comparisons between each of the three groups of mice.
The experimental timeline is represented in FIG. 53A. On day 0, GFP+FITC-CAR T cells [clone 4M5.3] were removed from cryopreservation, thawed and then infused intravenously into MDA-MB-231 tumor bearing NSG mice at 10 million per mouse [tumors ˜250 mm^3]. […]

Structure (SMILES) | body weight loss of escalation group (s.c. MDA-MB-231 tumors; cycles of 5, 50, 500 nmol/kg at day 1, 3, 5) | CAR T cells in circulation (MDA-MB-231 tumor; one dose EC17 500 nmol/kg) | rescue from sCRS (s.c. MDA-MB-231 tumors; 6 umol/kg) | CAR T cells in circulation (MDA-MB-231 tumor; 60 μmol/kg, 27 hours after rescue) | earliest increase of circulating CAR T cells (MDA-MB-231 tumor; 0.06-6 μmol/kg) [h] | CAR T cell extravasation into the blood (MDA-MB-231 tumor; 24 hours post rescue, 0.06-6 μmol/kg) | 4-1BB (CD137) on circulating CAR T cells (MDA-MB-231 tumor; CAR T + EC17 + sodium fluorescein 60 μmol/kg)
Nc1nc2ncc(CNc3ccc(C(=O)NC(CCC(=O)NCCNC(=S)Nc4ccc(-c5c6ccc(=O)cc-6oc6cc(O)ccc56)c(C(=O)O)c4)C(=O)O)cc3)nc2c(=O)[nH]1 (stereo not shown) [EC17, FITC-Folate] | much less than that of the EC17 SIW group | very few CAR T cells are detected in the circulation | – | – | – | – | –
O=C([O-])c1ccccc1-c1c2ccc(=O)cc-2oc2cc([O-])ccc12.[Na+].[Na+] [sodium fluorescein] | – | – | successfully rescued | CAR T cells reappear in the circulation | 3 | increased in a sodium fluorescein dose-dependent manner | express significant amounts of 4-1BB
